Active and inactive are the calls of the source. The rule behind the calls is not given here.

Nine compounds from ChEMBL document CHEMBL6087434, “An Activatable Heavy-Atom-Free Upconversion Photosensitizer for Targeted Imaging and Treatment of Tumors” (J Med Chem, 2024) can be followed below.

The subject of series [1] is A549. Kind of series: Cytotoxicity against human A549 cells under 808 nm light irradiation by DCF-DA probe based analysis. The series is classed as functional, cell-based.
Series [2] deals with A549. The experiment in a line: Induction of singlet oxygen production in human A549 cells under 808 nm light irradiation by DCF-DA probe based analysis. The series is classed as functional, cell-based.
Series [3] in a line: Drug metabolism in human HeLa cells assessed as NTR-mediated metabolism at 10 uM incubated for 30 mins by DAPI staining based CLSM analysis. The settings on record: 0.5 h. Format: ADME, cell-based.
Series [4] is described as follows: Drug metabolism in human A549 cells assessed as NTR-mediated metabolism at 10 uM incubated for 30 mins by DAPI staining based CLSM analysis. The series is classed as ADME, cell-based. Particulars: a549, 0.5 h.
Series [5] can be described thus: Drug metabolism in human L02 cells assessed as NTR-mediated metabolism at 10 uM incubated for 30 mins by DAPI staining based CLSM analysis. The settings on record: l02, 0.5 h. Format: ADME, cell-based.
A short description of series [6]: Induction of singlet oxygen quantum yield under 808 nm light irradiation by DPBF based assay. The series is classed as functional.
The nature of series [7]: Toxicity in mouse model xenografted with human A549 cells assessed as damage in spleen at 300 uM, iv measured after 14 days by H and E staining based analysis. The series is classed as organism-based. The settings on record: 336 h, time 14 day. A general note: In xenograft studies the graft and the host belong to different species.
A short description of series [8]: Drug metabolism assessed as NTR(unknown origin)-mediated metabolism under 745 nm light irradiation by fluorescence based analysis. The series is classed as ADME. Particulars: human.
A short description of series [9]: Drug uptake in human A549 cells xenografted in mouse model at 300 uM, iv measured after 2 hrs by fluorescence based imaging analysis. Format: ADME, organism-based. Particulars: in vivo.
A short description of series [10]: Drug uptake in mouse model xenografted with human A549 cells at 300 uM, iv measured after 90 mins by fluorescence based imaging analysis. The series is classed as ADME, organism-based. The settings on record: in vivo, 1.5 h.
Series [11] concerns HeLa. The experiment in a line: Cytotoxicity against human HeLa cells assessed as survival rate under laser light irradiation measured after 12 hrs by MTT assay. The series is classed as functional, cell-based. Particulars: dose <= 10.0 µM.
Series [12] is described as follows: Drug localization in human HeLa cells assessed as co-localization co-efficient at 10 uM by LysoTracker Green DND-2 dye based analysis. The series is classed as ADME, cell-based.
The test system of series [13] is HeLa. The experiment in a line: Cytotoxicity against human HeLa cells assessed as survival rate under laser light irradiation at 2.5 uM measured after 12 hrs by MTT assay relative to control. Particulars: light or radiation study, read-out: Survival. Format: functional. For orientation: Tetrazolium dyes change colour on reduction, which living cells bring about.

Series [14] deals with A549. Kind of series: Antitumor activity against human A549 cells xenografted in mouse model assessed as tumor growth inhibition at 300 uM, iv administered every other day under laser light irradiation for 14 days. Format: functional, organism-based. Particulars: time 14.0 day.
The subject of series [15] is A549. The experiment in a line: Cytotoxicity against human A549 cells assessed as survival rate under absence of light upto 10 uM measured after 12 hrs by MTT assay relative to control. The series is classed as functional. Particulars: up to 10 µM.
A short description of series [16]: Toxicity in mouse model xenografted with human A549 cells assessed as damage in kidney at 300 uM, iv measured after 14 days by H and E staining based analysis. The settings on record: 336 h, time 14 day. Format: organism-based.
A short description of series [17]: Toxicity in mouse model xenografted with human A549 cells assessed as body weight change at 300 uM, iv measured for 14 days. Format: organism-based. Particulars: 336 h, time 14 day.
Series [18] is described as follows: Toxicity in mouse model xenografted with human A549 cells assessed as damage in liver at 300 uM, iv measured after 14 days by H and E staining based analysis. The series is classed as organism-based. Particulars: 336 h, time 14 day.
Series [19] has as its system A549. Kind of series: Antitumor activity against human A549 cells xenografted in mouse model assessed as cellular structural damage at 300 uM, iv administered every other day under laser light irradiation measured after 14 days by H and E staining based analysis. Format: functional, organism-based. The settings on record: time 14.0 day.
Series [20] can be described thus: Toxicity in mouse model xenografted with human A549 cells assessed as damage in heart at 300 uM, iv measured after 14 days by H and E staining based analysis. The series is classed as organism-based. The settings on record: 336 h, time 14 day.
Series [21] deals with HeLa. The experiment in a line: Cytotoxicity against human HeLa cells assessed as survival rate under absence of light upto 10 uM measured after 12 hrs by MTT assay relative to control. The series is classed as functional. The settings on record: up to 10 µM.
Series [22] can be described thus: Toxicity in mouse model xenografted with human A549 cells assessed as damage in lung at 300 uM, iv measured after 14 days by H and E staining based analysis. Format: organism-based. Particulars: 336 h, time 14 day.
Series [23] concerns 4T1. The experiment in a line: Cytotoxicity against mouse 4T1 cells assessed as survival rate under laser light irradiation at 10 uM measured after 12 hrs by MTT assay relative to control. The series is classed as functional. The settings on record: 4T1, light or radiation study, read-out: Survival.
The subject of series [24] is A549. The experiment in a line: Cytotoxicity against human A549 cells assessed as survival rate under laser light irradiation at 2.5 uM measured after 12 hrs by MTT assay relative to control. Format: functional. Particulars: A549, light or radiation study, read-out: Survival.
The subject of series [25] is A549. Kind of series: Inhibition of cell migration in human A549 cells under 808 nm light irradiation measured for 18 hrs by wound healing assay. Format: functional, cell-based.
A short description of series [26]: Drug metabolism in human A549 cells assessed as NTR-mediated metabolism under 10 to 20 percent oxygen at 10 uM incubated for 30 mins by confocal fluorescence imaging based analysis. Format: ADME, cell-based. Particulars: a549, 0.5 h.
For series [27], the system named is HeLa. Kind of series: Cytotoxicity against human HeLa cells assessed as survival rate under laser light irradiation at 10 uM measured after 12 hrs by MTT assay relative to control. The settings on record: light or radiation study, read-out: Survival. The series is classed as functional.
Series [28] is described as follows: Drug localization in human A549 cells assessed as co-localization co-efficient at 10 uM by LysoTracker Green DND-2 dye based analysis. The series is classed as ADME, cell-based. The settings on record: a549, 10 µM.
Series [29] deals with 4T1. Kind of series: Cytotoxicity against mouse 4T1 cells assessed as survival rate under laser light irradiation at 2.5 uM measured after 12 hrs by MTT assay relative to control. The series is classed as functional. The settings on record: 4T1, light or radiation study, read-out: Survival.
Series [30] relates to A549. Kind of series: Cytotoxicity against human A549 cells assessed as survival rate under laser light irradiation at 10 uM measured after 12 hrs by MTT assay relative to control. Particulars: A549, light or radiation study, read-out: Survival. Format: functional.
In series [31] the test system is A549. Kind of series: Antitumor activity against human A549 cells xenografted in mouse model assessed as presence of necrotic cells at 300 uM, iv administered every other day under laser light irradiation measured after 14 days by H and E staining based analysis. The series is classed as functional, organism-based. The settings on record: time 14.0 day.
Series [32] relates to A549. Kind of series: Antitumor activity against human A549 cells xenografted in mouse model assessed as decrease in tumor re-occurence at 300 uM, iv administered every other day under laser light irradiation measured after 14 days during observation period. Format: functional, organism-based. Particulars: time 14.0 day.
The test system of series [33] is 4T1. Kind of series: Cytotoxicity against mouse 4T1 cells assessed as survival rate under laser light irradiation measured after 12 hrs by MTT assay. Format: functional, cell-based. The settings on record: dose <= 10.0 µM.
A short description of series [34]: Drug metabolism in human A549 cells assessed as NTR-mediated metabolism under 5 percent oxygen at 10 uM incubated for 30 mins by DAPI staining based CLSM analysis. The settings on record: a549, 0.5 h. The series is classed as ADME, cell-based.
Series [35] concerns A549. Kind of series: Antitumor activity against human A549 cells xenografted in mouse model assessed as tumor disappearance at 300 uM, iv administered every other day under laser light irradiation for 14 days relative to control. The settings on record: time 14 day. Format: functional.
Series [36] has as its system A549. The experiment in a line: Cytotoxicity against human A549 cells assessed as survival rate under laser light irradiation measured after 12 hrs by MTT assay. The series is classed as functional, cell-based. The settings on record: dose <= 10.0 µM.
The subject of series [37] is A549. Kind of series: Induction of apoptosis in human A549 cells under 808 nm light irradiation by Annexin V-FITC/PI staining based flow cytometry. The series is classed as functional, cell-based. In general terms: Flow cytometry measures light scatter and fluorescence of single cells or particles in a stream.
The subject of series [38] is 4T1. Kind of series: Cytotoxicity against mouse 4T1 cells assessed as survival rate under absence of light upto 10 uM measured after 12 hrs by MTT assay relative to control. Format: functional. The settings on record: up to 10 µM.
The nature of series [39]: Photostability of compound upto 2 W/cm2 measured for 8 mins. The series is classed as physicochemical.
A short description of series [40]: Induction of singlet oxygen quantum yield under 808 nm light irradiation in presence of NTR by DPBF based assay. The series is classed as functional.
Series [41] deals with A549. Kind of series: Cytotoxicity against NAC-treated human A549 cells by DCF-DA probe based analysis. Format: functional, cell-based.
For series [42], the system named is A549. Kind of series: Cytotoxicity against human A549 cells under near-infra red light irradiation. Format: functional, cell-based.
The nature of series [43]: Induction of singlet oxygen quantum yield assessed as decrease in absorption signal under 415 nm light irradiation measured after 15 mins by DPBF based assay. Format: functional. Details: scale not given: the % may be the effect or the level left.
In series [44] the test system is A549. Kind of series: Induction of singlet oxygen production in human A549 cells by DCF-DA probe based analysis. The series is classed as functional, cell-based.

On to `O=c1oc2ccccc2c(O)c1Cc1c(O)c2ccccc2oc1=O` [DICUMAROL], for which the result in the series with A549 [1] and in the series on A549 [2] was inactive. Further, the Drug metabolism result in series [3] and in [4] was “metabolite_notdetected” throughout.
Take COBALTOUS CHLORIDE: the Drug metabolism result in series [5] was “metabolite_detected”.
On to `CC[N+]1=C(/C=C/C2=C3Oc4cc(N)ccc4C=C3CCC2)C(C)(C)c2ccccc21`, for which the Activity in series [6] was 0.005.
The compound `CC[N+]1=C(/C=C/C2=C3Oc4cc(O)ccc4C=C3CCC2)C(C)(C)c2c1ccc1ccccc21` gave an Activity in [6] of 0.002.
Turning to `CC[N+]1=C(/C=C/C2=C3Oc4cc(N(C)C(=O)OCc5ccc([N+](=O)[O-])cc5)ccc4C=C3CCC2)C(C)(C)c2c1ccc1ccccc21.I`, the Activity entry in series [7] is “Non-toxic”; in the series with HeLa [11], “Dose-dependent-effect”; in [12], 0.88; in [16] it was “Non-toxic”; in series [17] it was “Non-toxic”; in series [18], “Non-toxic”. Further, the Activity result in series [20] is “Non-toxic”; in [22] it was “Non-toxic”; in series [28], 0.9; with 4T1 [33] it was “Dose-dependent-effect”; in the series with A549 [35] it was around 100%; in the series with A549 [36], “Dose-dependent-effect”. Also, the outcome with A549 [1], in the series on A549 [2], in the series with A549 [19], with A549 [31], in the series on A549 [32] and in the series on A549 [37] was Active. Further, the Drug metabolism result in series [8] is given as “metabolite_detected”; in series [26], “metabolite_notdetected”; in [34], “metabolite_detected”. The Drug uptake entry in [9] and in series [10] was “Active” each time. For the same compound, the viability at 2.5 µM in the series with HeLa [13], with A549 [24] and in the series on 4T1 [29] was below 80% in each case. In addition, the inhibition entry with A549 [14] and in the series on A549 [25] was “Active” in each case. Moreover, the Survival with A549 [15], in the series on HeLa [21] and in the series with 4T1 [38] was above 85% throughout. Besides, the viability at 10 µM in the series with 4T1 [23], with HeLa [27] and with A549 [30] was below 40% each time.
On to `CC[N+]1=C(/C=C/C2=C3Oc4cc(NC)ccc4C=C3CCC2)C(C)(C)c2ccccc21`, for which the Activity in series [6] stood at 0.005.
As for `CC[N+]1=C(/C=C/C2=C3Oc4cc(NC)ccc4C=C3CCC2)C(C)(C)c2c1ccc1ccccc21.[I-]`, the Stability entry in series [39] is “Stable”. In addition, the result (in [40]; in the series with A549 [41]) was inactive. Moreover, the outcome with A549 [42], in the series on A549 [37] and with A549 [44] was Active. In addition, the Activity in series [6] was found to be 0.059; in series [43], 74.7%.
Compound `CC[N+]1=C(/C=C/C2=C3Oc4cc(N)ccc4C=C3CCC2)C(C)(C)c2c1ccc1ccccc21` had an Activity in series [6] of 0.008.
Still for that read-out and setting: the value for `CC[N+]1=C(/C=C/C2=C3Oc4cc(O)ccc4C=C3CCC2)C(C)(C)c2ccccc21` was 0.002.
